Consider 20 compounds from EP4029501A1, “COMBINATION OF POLYAROMATIC UREA DERIVATIVES AND GLUCOCORTICOID OR HDAC INHIBITOR FOR THE TREATMENT OF DISEASES OR CONDITIONS ASSOCIATED WITH MUSCLE CELLS AND/OR SATELLITE CELLS” (Anagenesis Biotechnologies, priority 2021, dated 2022).

Where a name gives a salt, the structure may show the parent alone.

In the test the test system is muscle progenitors derived from DMD hiPSC. The test is described as follows: Myotube assay: total myotube area per well (alpha-actinin staining). The following applies: Homo sapiens, Myotube, 72 h, DMD or WT cell source not given; for Emax: efficacy, MA = normalized Myotube Area, 3 days incubation; for EC50: myogenic activity, half-maximal generation of myotubes, 10 points dose-response 1.5 nM to 30 µM, 3 days. It counts as cell-based, human. The protocol: An in vitro assay for assessing the efficacy of compounds for use in treating, ameliorating, delaying, curing and/or preventing a disease or condition associated with muscle cells and/or satellite cells is described in example 78. Herein, the generation of myotubes and satellite cells after adding a compound to a myotube assay workflow is assessed. Said myotube assay workflow is derived from wild-type or DMD human induced pluripotent stem cells (WT hiPSC or DMD hiPSC). Before the addition of said compound, the assay comprises satellite-like cells, but no significant amount of myotubes.
The efficacy of said compound for use in treating, ameliorating, delaying, curing and/or preventing a disease or condition associated with muscle cells and/or satellite cells is positively correlated with the generation of myotubes (i.e. the increase of the area occupied by myotubes on the assay) and/or satellite cells (i.e. the increase of the number of satellite cells) in the assay after adding said compound. The generation of myotubes by the addition of said compound is expressed as the EC50 value, the concentration of said compound that corresponds with the half-maximal generation of myotubes, and the MA (normalized myotube area) value, the normalized area occupied by generated myotubes on the assay. […] Since muscle cells are formed from myotubes during myogenesis, the generation of myotubes in the assay is a good indicator of the ability of said compound to induce the formation of functional muscle cells in vivo. The number of satellite cells is measured as the percentage of Pax7 positive cells, relative to the total number of cells in the assay, as shown in Figure 3. The percentage of Pax7 is a good indicator of the ability of said compound to induce the formation of satellite cells which are able to play a role in muscle repair and regeneration in vivo.
DMD human induced pluripotent stem cells (hereafter "DMD hiPSC"), generated from the NCRM-1 hiPSC WT cell line by gene editing, or WT human induced pluripotent stem cells (hereafter "WT hiPSC"), being NCRM-1 hiPSC wt cell line, have been differentiated according to Chal et al. 2015, 2016, to produce muscle progenitors (hereafter "hMP"). The hMP population contains satellite-like cells (i.e Pax7-positive cells) and satellite cells' progenies (i.e. Myogenin-positive cells).
Figure 1 provides an example of a Myotube assay workflow. At day 0, hMP are thawed and 3.1 million cells are plated into a T75-flask coated with hESC-qualified Matrigel™ (Corning) in SkGM proliferating medium (PromoCells), supplemented with 5 µM Y-27632 (Tocris Bioscience). On day 2, SkGM proliferating medium is refreshed. On day 4, hMP are harvested and transferred into a 384-well plate coated with collagen type I at a density of 3500 cells/well in a DMEM-based medium, containing 5% of knockout serum replacement (Gibco), 1% PenStrep (Gibco), 1% MEM NEAA (Gibco) and 0.1 mM 2-mercaptoethanol (Gibco) (hereafter "K5 medium") and 5 µM Y-27632. Compounds to be tested are then added in the medium and incubated for 3 days at 37°C. On day 7, cells are fixed and immunostained. For example, myotubes (alpha-actinin staining) and satellite-like (Pax7 staining) cells can be analyzed for total myotube area per well or Pax7-positive cell quantification.
DMD hMP were put in the Myotube assay according to the workflow described in Example 2.1. In particular, compound (i) was added at concentrations ranging from 1.5 nM to 30 µM, starting from day 4. hMP were cultivated for three more days in presence of compound (i), then fixed and analyzed for quantification of total myotube area per well. Duplicates of each condition were averaged.

What is called Emax is the greatest response seen or fitted, relative to the assay's reference. A word on the EC50: it is the midpoint of the concentration-response curve. Higher therefore signals a less potent agent. Consider `CSc1cc(Oc2cccc3[nH]c(=O)cnc23)ccc1NC(=O)Nc1cc(C(C)(C)C)nn1-c1ccccc1` [(bu), 1-(3-(tert-butyl)-1-phenyl-1H-pyrazol-5-yl)-3-(2-(methylthio)-4-((2-oxo-1,2-dihydroquinoxalin-5-yl)oxy)phenyl)urea], for which the Emax fell in the range of 25 to 50% and the EC50 is not below 5000 nM.

In the case of `CSc1cc(Oc2ncnc3[nH]c(=O)cnc23)ccc1NC(=O)Nc1cc(C(C)(C)C)nn1-c1ccccc1` [(bv), 1-(3-(tert-butyl)-1-phenyl-1H-pyrazol-5-yl)-3-(2-(methylthio)-4-((7-oxo-7,8-dihydropteridin-4-yl)oxy)phenyl)urea], the Emax was not below 75% and the EC50 is not below 5000 nM.

Turning to `CSc1cc(Oc2ccnc3[nH]c(=O)cnc23)ccc1NC(=O)Nc1cc(C(C)(C)C)no1` [(bx), 1-(3-(tert-butyl)isoxazol-5-yl)-3-(2-(methylthio)-4-((3-oxo-3,4-dihydropyrido[2,3-b]pyrazin-8-yl)oxy)phenyl)urea], the Emax was not below 75% and the half-maximal effective concentration (EC50) was 500 to 1000 nM.

The compound `CSc1cc(Oc2ccnc3c2CCC(=O)N3)ccc1NC(=O)Nc1cc(C(C)(C)C)nn1-c1ccc(C)cc1` [(by), 1-(3-(tert-butyl)-1-(p-tolyl)-1H-pyrazol-5-yl)-3-(2-(methylthio)-4-((7-oxo-5,6,7,8-tetrahydro-1,8-naphthyridin-4-yl)oxy)phenyl)urea] returned an Emax not below 75% and an EC50 of less than 500 nM.

Consider `CSc1cc(Oc2ccnc3c2CCC(=O)N3)ccc1NC(=O)Nc1cc(C(C)(C)C)nn1-c1cccc(Cl)c1` [(bz), 1-(3-(tert-butyl)-1-(3-chlorophenyl)-1H-pyrazol-5-yl)-3-(2-(methylthio)-4-((7-oxo-5,6,7,8-tetrahydro-1,8-naphthyridin-4-yl)oxy)phenyl)urea], for which the Emax was not below 75% and the half-maximal effective concentration (EC50) is less than 500 nM.

As to `CCC(C)c1cc(NC(=O)Nc2ccc(Oc3ccnc4[nH]c(=O)cnc34)cc2F)n(-c2ccccc2)n1` (stereo not shown) [(c), 1-(3-(sec-butyl)-1-phenyl-1 H-pyrazol-5-yl)-3-(2-fluoro-4-((3-oxo-3,4-dihydropyrido[2,3-b]pyrazin-8-yl)oxy)phenyl)urea], the Emax lay in the range of 50 to 75% and the EC50 is not below 5000 nM.

In turn, `CSc1cc(Oc2ccnc3[nH]c(=O)cnc23)ccc1NC(=O)Nc1nc(C(C)(C)C)cs1` [(ca), 1-(4-(tert-butyl)thiazol-2-yl)-3-(2-(methylthio)-4-((3-oxo-3,4-dihydropyrido[2,3-b]pyrazin-8-yl)oxy)phenyl)urea] gave an Emax not below 75% and an EC50 not below 5000 nM.

Compound `CSc1cc(Oc2ccnc3c2CCC(=O)N3)ccc1NC(=O)Nc1ncc(C(C)(C)C)s1` [(cb), 1-(5-(tert-butyl)thiazol-2-yl)-3-(2-(methylthio)-4-((7-oxo-5,6,7,8-tetrahydro-1,8-naphthyridin-4-yl)oxy)phenyl)urea] showed an Emax not below 75% and an EC50 of less than 500 nM.

For the compound `CSc1cc(Oc2ccnc3[nH]c(=O)cnc23)ccc1NC(=O)Nc1cc(C(C)(C)C)nn1-c1ccc(C#N)cc1` [(cc), 1-(3-(tert-butyl)-1-(4-cyanophenyl)-1H-pyrazol-5-yl)-3-(2-(methylthio)-4-((3-oxo-3,4-dihydropyrido[2,3-b]pyrazin-8-yl)oxy)phenyl)urea], the Emax is not below 75% and the EC50 is less than 500 nM.

On to `CSc1cc(Oc2ccnc3[nH]c(=O)cnc23)ccc1NC(=O)Nc1cc(C(C)(C)C)nn1-c1ccc(C)c(C)c1` [(cd), 1-(3-(tert-butyl)-1-(3,4-dimethylphenyl)-1H-pyrazol-5-yl)-3-(2-(methylthio)-4-((3-oxo-3,4-dihydropyrido[2,3-b]pyrazin-8-yl)oxy)phenyl)urea], for which the Emax is not below 75% and the EC50 is less than 500 nM.

`CSc1cc(Oc2ccnc3[nH]c(=O)cnc23)ccc1NC(=O)Nc1cc(C(C)(C)C)nn1-c1ccc(OCCN2CCCCC2)cc1` [(ce), 1-(3-(tert-butyl)-1-(4-(2-(piperidin-1-yl)ethoxy)phenyl)-1H-pyrazol-5-yl)-3-(2-(methylthio)-4-((3-oxo-3,4-dihydropyrido[2,3-b]pyrazin-8-yl)oxy)phenyl)urea] showed an Emax not below 75% and an EC50 of less than 500 nM.

In the case of `CSc1cc(Oc2ccnc3[nH]c(=O)cnc23)ccc1NC(=O)Nc1cc(C(C)(C)C)nn1-c1ccc(OCCN2CCOCC2)cc1` [(cf), 1-(3-(tert-butyl)-1-(4-(2-morpholinoethoxy)phenyl)-1 H-pyrazol-5-yl)-3-(2-(methylthio)-4-((3-oxo-3,4-dihydropyrido[2,3-b]pyrazin-8-yl)oxy)phenyl)urea], the Emax is not below 75% and the EC50 lay in the range of 500 to 1000 nM.

Turning to `CSc1cc(Oc2ccnc3c2CCC(=O)N3)ccc1NC(=O)Nc1cncc(C(F)(F)F)c1` [(cg), 1-(2-(methylthio)-4-((7-oxo-5,6,7,8-tetrahydro-1,8-naphthyridin-4-yl)oxy)phenyl)-3-(5-(trifluoromethyl)pyridin-3-yl)urea], the Emax was not below 75% and the EC50 is not below 5000 nM.

`CSc1cc(Oc2ccnc(N(CCN(C)C)C(=O)OC(C)(C)C)c2)ccc1NC(=O)Nc1cc(C(C)(C)C)nn1-c1ccccc1` [(ch), tert-butyl (4-(4-(3-(3-(tert-butyl)-1-phenyl-1H-pyrazol-5-yl)ureido)-3-(methylthio)phenoxy)pyridin-2-yl)(2-(dimethylamino)ethyl)carbamate]: the Emax was 50 to 75% and the EC50 is not below 5000 nM.

The compound `CSc1cc(Oc2cccc3c2CCC(=O)N3)ccc1NC(=O)Nc1cc(C(C)(C)C)nn1-c1ccccc1` [(ci), 1-(3-(tert-butyl)-1-phenyl-1H-pyrazol-5-yl)-3-(2-(methylthio)-4-((2-oxo-1,2,3,4-tetrahydroquinolin-5-yl)oxy)phenyl)urea] had an Emax of 25 to 50% and an EC50 not below 5000 nM.

`CSc1cc(Oc2ccnc3[nH]c(=O)cnc23)ccc1NC(=O)Nc1nnc(C(C)(C)C)o1` [(cj), 1-(5-(tert-butyl)-1,3,4-oxadiazol-2-yl)-3-(2-(methylthio)-4-((3-oxo-3,4-dihydropyrido[2,3-b]pyrazin-8-yl)oxy)phenyl)urea]: the Emax is not below 75% and the EC50 is not below 5000 nM.

In turn, `CSc1cc(Oc2ccnc(NCCN(C)C)c2)ccc1NC(=O)Nc1cc(C(C)(C)C)nn1-c1ccccc1` [(ck), 1-(3-(tert-butyl)-1-phenyl-1 H-pyrazol-5-yl)-3-(4-((2-((2-(dimethylamino)ethyl)amino)pyridin-4-yl)oxy)-2-(methylthio)phenyl)urea hydrochloride] returned an Emax not below 75% and an EC50 of 500 to 1000 nM.

In turn, `CSc1cc(Oc2ccnc3[nH]c(=O)cnc23)ccc1NC(=O)Nc1cc(C(C)(C)C)nn1-c1ccc(C)c(Cl)c1` [(cl), 1-(3-(tert-butyl)-1-(3-chloro-4-methylphenyl)-1H-pyrazol-5-yl)-3-(2-(methylthio)-4-((3-oxo-3,4-dihydropyrido[2,3-b]pyrazin-8-yl)oxy)phenyl)urea] returned a maximum response (Emax) not below 75% and a concentration for a half-maximal effect (EC50) of less than 500 nM.

The compound `CSc1cc(Oc2ccnc3[nH]c(=O)cnc23)ccc1NC(=O)Nc1cc(C(C)(C)C)nn1-c1ccc(F)c(Cl)c1` [(cm), 1-(3-(tert-butyl)-1-(3-chloro-4-fluorophenyl)-1H-pyrazol-5-yl)-3-(2-(methylthio)-4-((3-oxo-3,4-dihydropyrido[2,3-b]pyrazin-8-yl)oxy)phenyl)urea] registered an Emax not below 75% and an EC50 of 500 to 1000 nM.

As for `CSc1cc(Oc2cccc3[nH]ncc23)ccc1NC(=O)Nc1cc(C(C)(C)C)nn1-c1ccccc1` [(cn), 1-(4-((1H-indazol-4-yl)oxy)-2-(methylthio)phenyl)-3-(3-(tert-butyl)-1-phenyl-1H-pyrazol-5-yl)urea], the Emax was 50 to 75% and the EC50 was 1000 to 5000 nM.
